In patent US20170202939A1, “PERSONALIZED CANCER VACCINES AND METHODS THEREFOR” (Washington University, priority 2014, published 2017):
No end group written: not given here.

Legend:
[1] = test system: neoantigen-specific CD8+ T cells; test: immune monitoring of vaccinated patients, HLA/peptide dextramer (tetramer) assay on cultured PBMC; type: in vivo, human; settings: for Immunogenicity: AAS-directed CD8+ T cell response in vaccinated patient; for Spontaneous Immunity: pre-vaccine (naturally-occurring) CD8+ T cell response, immune monitoring assay
Description: Immunologic monitoring (Examples 1-10). Immunologic analysis to evaluate the kinetics and magnitude of T cell response to gp100 peptides was performed using PBMCs collected weekly (prior to vaccination and until week 21. Fresh PBMCs obtained by Ficoll-Hypaque gradient centrifugation were adjusted to 2×10^6 cells/ml in Stemline media (Sigma-Aldrich) containing 5% human AB-serum, and dispersed at 1 ml/well in 24-well plates. Cultures were set up for the gp100 peptides and the CMV pp65 peptide (positive peptide control). Cultures were pulsed with 40 μg/ml peptide and 50 U/ml IL-2 fed starting at 48 hours and every other day thereafter. On day 12 (peak of response; the inventors' unpublished observation), cultures were harvested, counted, and stained for flow cytometry analysis. To assess the antigen-specific T cell frequency, cells were stained with HLAA*0201/peptide tetramers (Beckman Coulter) for 30 minutes at room temperature, followed by addition of FITC-conjugated CD4, CD14, CD19, and CD56 and allophycocyanin-conjugated CD8 (Invitrogen) for 15 minutes at 4° C. Cells were washed and resuspended in FACS buffer, and 7AAD was added 5 minutes before analysis. Control CMV pp65-specific CD8+ T cells were detected in all CMV-seropositive patients before and after immunization. A negative HLA-A*0201/HIV gag peptide tetramer control was included. 25,000 events in the CD8+ gate were collected using a hierarchical gating strategy that included FSC/SSC and excluded 7AAD+ (dead) cells and CD4+CD14+CD19+CD56+ cells. Data were acquired and analyzed using Flow-Jo software.
To examine the kinetics and magnitude of T cell immunity to AAS peptides upon vaccination, peripheral blood mononuclear cells (PBMC) were collected prior to vaccination and weekly thereafter. The CD8+ T cell response to each peptide was analyzed using a HLA-A*02:01/AAS-peptide dextramer assay after a single round of in vitro stimulation. FIG. 30A illustrates kinetics of immune responses to neoantigens. Time is recorded in weeks (0 indicates pre-vaccination). Culture conditions and staining details are described infra. Antigen-specific numbers were calculated based on dextramer percentage and total live cell yields. Immunologic analysis to evaluate the kinetic and magnitude of T cell response to AAS-encoding and gp100-derived peptides was performed using PBMC collected weekly, starting before DC vaccination (Pre-vaccine in the figures) as described (Carreno, B. M., et al., J. Clin. Invest., 123, 3383-3394, 2013). Briefly, fresh PBMC obtained by Ficoll-Paque PLUS gradient centrifugation were cultured with 40 ug/mL peptide and IL-2 (50 U/mL). On day 10 (peak of response, unpublished data, labeled “Post-Vaccine” in the figures), neoantigen specific T cell frequencies were determined by staining with HLA-A*02:01/peptide dextramers (Immudex), followed by addition of FITC-CD4, -CD14, -CD19 (Invitrogen) and ALEXA® 488-CD56 (BD Pharmigen), APC-CD8 (Invitrogen). Cells were washed, resuspended in FACS buffer containing 7AAD. Twenty five thousand events in the CD8+ gate were collected using a hierarchical gating strategy that included FSC/SSC and excluded 7AAD-positive (dead cells) and CD4/14/19/56-positive cells. PBMC/CD8+ T cells derived from an unrelated HLA-A*02:01 patient were used as negative controls for assessing specificity of HLA-A*02:01/AAS-peptide dextramers (data not shown). Data were acquired and analyzed using Flow-Jo software. […] FIG. 30B illustrates the frequency of neoantigen specific T cells in CD8+ populations isolated directly from PBMC samples and after ex-vivo expansion using autologous DC and artificial antigen presenting cells. For dominant neoantigens TMEM48 F169L, SEC24A P469L and EXOC8 Q656, results are shown for samples obtained before vaccination (Pre-vaccine) and after 3 vaccine doses (Post-vaccine). For remaining neoantigens, results obtained with post-vaccine PBMC samples are shown. […]

HLA-A*02:01 [2] = molecular target: T1, HLA-A*02:01 (Homo sapiens, UniProt P04439, D140Y/D185E/D98H/E176V/E277Q/G131W/G231S/I119V/I121R/I166T/I218V/L300P/L318F/N151K/N90K/P208A/P217A/Q86G/Q94H/R138H/R169H/T345S); test: fluorescence polarization-based competitive peptide binding assay; settings: fluorescence polarization-based competitive peptide-binding assay; high affinity log(IC50; nM) <3.7; read-out: Experimental Affinity log(IC50) (converted)
T1 construct: purchased Pure Protein, L.L.C

HLA-A*02:01 [3] = molecular target: T2, HLA-A*02:01 (human); test: fluorescence polarization-based competitive peptide-binding assay
T2 construct: The form of the HLA molecule in the fluorescence polarization assay is not described; also called HLA-A2

Molecule	Immunogenicity [1]	Spontaneous Immunity [1]	IC50 (HLA-A*02:01 [2])	log(IC50, nM) (HLA-A*02:01 [3])	further results
YISKCWDYA	No	No	19100 nM	–	–
AVIDAYTEI	No	No	25700 nM	–	–
CLFPQTLAA	No	No	3390 nM	–	–
KLANPLPYT	No	No	5370 nM	–	–
QTIDNIVFL	No	No	1550 nM	–	–
FVSALCMFL	No	No	–	–	–
LLSIVPCTV	No	No	1230 nM	–	–
G280-9V: HLA-A*0201-restricted gp100 melanoma antigen-derived peptide, positive control for vaccination [reference compound]	–	–	–	–	T cell response upon vaccination ([1]; post-vaccine PBMC, dextramer assay): enhanced in patients MEL21 and MEL218 and revealed in patient MEL38; pre-existing (naturally occurring) T cell immunity ([1]; pre-vaccine PBMC samples after in vitro stimulation): Two (MEL21 and MEL218) of the three patients had pre-existing immunity
QLDKCSAFV	No	No	2290 nM	–	–
HLYASLSRV	–	–	1910 nM	–	–
LLSIIFFPA	No	No	7940 nM	–	–
VLLRALPVL	No	No	1120 nM	–	–
IMAHCILDL	No	No	10500 nM	–	–
IIGAGPAEV	–	–	6610 nM	–	–
CLFPQTLAA [PRKCDBP S153F AAS peptide CLFPQTLAA (MEL38)]	–	–	–	3.53 log(IC50, nM)	–
QTIDNIVFL (Synthetic nonamer carrying a tumor amino acid substitution) [ARFGEF1 F1637L AAS peptide QTIDNIVFL (MEL21)]	–	–	–	3.19 log(IC50, nM)	–
QLDKCSAFV (Synthetic nonamer carrying a tumor amino acid substitution) [UTRN Q1058K AAS peptide QLDKCSAFV (MEL38)]	–	–	–	3.36 log(IC50, nM)	–

Molecule	Immunogenicity [1]	Spontaneous Immunity [1]	IC50 (HLA-A*02:01 [2])	log(IC50, nM) (HLA-A*02:01 [3])	further results
AMFWSVPTV [TKT R438W AAS peptide AMFWSVPTV, anchor-modified at P9 (MEL21)]	–	–	–	2.35 log(IC50, nM)	–
QLSCISTYV (Synthetic nonamer carrying a tumor amino acid substitution) [OR8B3 T190I AAS peptide QLSCISTYV (MEL38)]	–	–	–	3.1 log(IC50, nM)	–
MLGEQLFPL (Synthetic nonamer carrying a tumor amino acid substitution) [PABPC1 R520Q AAS peptide MLGEQLFPL (MEL218)]	–	–	–	2.35 log(IC50, nM)	–
YISKCWDYA (Synthetic nonamer carrying a tumor amino acid substitution) [HSD17B7 H108Y AAS peptide YISKCWDYA (MEL38)]	–	–	–	4.28 log(IC50, nM)	–
LLSIIFFPA (Synthetic nonamer carrying a tumor amino acid substitution) [PHKA2 S264F AAS peptide LLSIIFFPA (MEL21)]	–	–	–	3.9 log(IC50, nM)	–
KLMNIQQKL (Synthetic nonamer carrying a tumor amino acid substitution) [AKAP13 Q285K AAS peptide KLMNIQQKL (MEL38)]	–	–	–	3.07 log(IC50, nM)	–
KLANPLPYT (Synthetic nonamer carrying a tumor amino acid substitution) [SMOX K499N AAS peptide KLANPLPYT (MEL218)]	–	–	–	3.73 log(IC50, nM)	–
IIGAGPAEV [KDM1B G394E AAS peptide IIGAGPAEV, anchor-modified at P9 (MEL21)]	–	–	–	3.82 log(IC50, nM)	–
CLNEYHLFL (Synthetic nonamer carrying a tumor amino acid substitution) [TMEM48 F169L AAS peptide CLNEYHLFL (MEL21)]	–	–	–	3.09 log(IC50, nM)	–
FVSALCMFL [ARFGEF1 R782C AAS peptide FVSALCMFL (MEL38)]	–	–	–	3.18 log(IC50, nM)	–
IILVAVPHV [EXOC8 Q656P AAS peptide IILVAVPHV (MEL218)]	–	–	–	3.06 log(IC50, nM)	–
IMAHCILDL (Synthetic nonamer carrying a tumor amino acid substitution) [SRP9 I64M AAS peptide IMAHCILDL (MEL218)]	–	–	–	4.02 log(IC50, nM)	–
VLLRALPVL (Synthetic nonamer carrying a tumor amino acid substitution) [MRPS17 P167L AAS peptide VLLRALPVL (MEL218)]	–	–	–	3.05 log(IC50, nM)	–
LLSIVPCTV (Synthetic nonamer carrying a tumor amino acid substitution) [GPX8 L27P AAS peptide LLSIVPCTV (MEL21)]	–	–	–	3.09 log(IC50, nM)	–
FLYNLLTRV (Synthetic nonamer carrying a tumor amino acid substitution) [SEC24A P469L AAS peptide FLYNLLTRV (MEL38)]	–	–	–	2.68 log(IC50, nM)	–
AVIDAYTEI (Synthetic nonamer carrying a tumor amino acid substitution) [LARP7 N515D AAS peptide AVIDAYTEI (MEL218)]	–	–	–	4.41 log(IC50, nM)	–
HLYASLSRV [MRPS5 P59L AAS peptide HLYASLSRV, anchor-modified at P9 (MEL218)]	–	–	–	3.28 log(IC50, nM)	–
